Test results: patent publication US20240148819A1, “COMPOUNDS FOR USE IN THE TREATMENT OF SINUSITIS, PNEUMONIA OR OTITIS” (PHARMA HOLDINGS AS, priority 2021, published 2024)
Values after ≈ are worked out from the molar mass of the structure shown. Values joined by “and” are separate entries in the source; they are usually repeats but may differ in a detail not shown here. Identical values can stand only once. Like-named read-outs stand apart in the source and are kept apart here.

Tests used:
[1] = system: Influenza A virus (IAV; A/WSN/33); type: cell-based
[2] = system: Moraxella catarrhalis
Procedure: (§1) Bacterial and fungal isolates used in this study were from various sources worldwide stored at GR Micro Ltd. and maintained, with minimal sub-culture, deep frozen at −70° C. as a dense suspension in a high protein matrix of undiluted horse serum.
(§2) Minimum inhibitory concentration (MIC) of LTX-109 was determined using the following microbroth dilution methods for antimicrobial susceptibility testing published by the Clinical and Laboratory Standards Institute (CLSI, formerly NCCLS): • M7-A6 Vol. 23 No. 2 Jan. 2003 Methods for Dilution Antimicrobial Susceptibility Tests for Bacteria that Grow Aerobically; Approved Standard-Sixth Edition. National Committee for Clinical Laboratory Standards. • M100-S15 Vol. 25 No 1. January 2005 Performance Standards for Antimicrobial Susceptibility Testing; Fifteenth Informational Supplement. Clinical and Laboratory Standards Institute • M11-A6 Vol. 24 No. 2 Methods for Antimicrobial Susceptibility Testing of Anaerobic Bacteria; Approved Standard-Sixth Edition. National Committee for Clinical Laboratory Standards. • M27-A2 Vol. 22 No. 15 Reference Method for Broth Dilution Antifungal Susceptibility Testing of Yeasts; Approved Standard-Second Edition. National Committee for Clinical Laboratory Standards. • M38-A Vol. 22 No. 16 Reference Method for Broth Dilution Antifungal Susceptibility Testing of Filamentous Fungi; Approved Standard. National Committee for Clinical Laboratory Standards.
(§3) MIC estimations were performed using wet plates, containing the LTX-109, prepared at GR Micro Ltd.
(§4) Cation-adjusted Mueller-Hinton broth (Oxoid Ltd., Basingstoke, UK and Trek Diagnostic Systems Ltd., East Grinstead, UK) (supplemented with 5% laked horse blood for Streptococcus spp.) was used for aerobic bacteria, with an initial inoculum of approximately 10^5 colony-forming units (CFU)/mL.
(§5) Following normal practice all the plates containing Mueller-Hinton broth were prepared in advance, frozen at −70° C. on the day of preparation and defrosted on the day of use. Fungal, Haemophilus and anaerobic MIC determinations were all performed in plates prepared on the same day.

[3] = system: Streptococcus pneumoniae
Procedure: as §1, §2, §3, §4, §5

[4] = system: Streptococcus pyogenes; settings: Streptococcus pyogenes - macrolide (MLS) resistant clinical isolate
Procedure: as §1, §2, §3, §4, §5

[5] = system: Pseudomonas aeruginosa; settings: Pseudomonas aeruginosa - ATCC 27853 - antibiotic-susceptible type strain; three replicates (frozen and fresh MHB plates)
Procedure: as §1
as §2, with “Standard-Second Edition. […] National Committee” for “Standard-Second Edition. National Committee”, “Laboratory Standards.” for “Laboratory Standards. • M38-A Vol. 22 No. 16 Reference Method for Broth Dilution Antifungal Susceptibility Testing of Filamentous Fungi; Approved Standard. National Committee for Clinical Laboratory Standards.”
MIC estimations were performed using wet plates, containing the LTX-109, prepared at GR Micro Ltd. […]

[6] = system: Mycoplasma pneumoniae
Procedure: Two library strains of Mycoplasma pneumoniae were used. These strains were stored at GR Micro Ltd. and maintained, with minimal sub-culture, deep frozen at −70° C. as a dense suspension in a high protein matrix of undiluted horse serum.
MIC determination was carried out using a broth microdilution method in Mycoplasma Broth Base (Oxoid Ltd, Hampshire, UK), prepared according to the manufacturer's instructions.

[7] = system: HeLa cells; settings: 1% LTX-109 (w/v) or 0.25% SDS, after filtration, no virus, dilution showing cytotoxicity
Procedure: A parallel test where the same procedure was carried out in the absence of virus was included to determine any residual cytotoxic effect of the formulation on the assay cells.

**Q.** What does the source list for `CC(C)(C)c1cc(C(C)(C)C)c2[nH]c(C(C)(C)C)c(CC(NC(=O)C(N)CCCNC(=N)N)C(=O)NC(CCCNC(=N)N)C(=O)NCCc3ccccc3)c2c1` (stereo not shown) [LTX-109]?
**A.** Log [1]: 1.20; Percentage [1]: 99.9% and 99.969%; MIC ([2]; Moraxella catarrhalis - reduced fluoroquinolone susceptibility clinical isolate): 8 µg/mL (≈ 10.2 µM); MIC ([2]; Moraxella catarrhalis - β-lactamase positive clinical isolate): 4 µg/mL (≈ 5.08 µM); MIC ([3]; Streptococcus pneumoniae - multi-drug resistant clinical isolate): 32 µg/mL (≈ 40.6 µM); MIC ([3]; Streptococcus pneumoniae - penicillin intermediate clinical isolate): 32 µg/mL (≈ 40.6 µM); MIC ([3]; Streptococcus pneumoniae - penicillin resistant clinical isolate): 16 µg/mL (≈ 20.3 µM); MIC ([3]; Streptococcus pneumoniae - penicillin susceptible clinical isolate): 32 µg/mL (≈ 40.6 µM); MIC [4]: 16 µg/mL (≈ 20.3 µM); MIC [5]: 8 µg/mL (≈ 10.2 µM); MIC ([6]; one of the library strains of Mycoplasma pneumoniae): 32 µg/mL (≈ 40.6 µM); MIC ([6]; the other of the library strains of Mycoplasma pneumoniae): 16 µg/mL (≈ 20.3 µM); Cytotoxicity [7]: Neat
